Test results reported in patent publication US7541193B2, “Caged sensors, regulators and compounds and uses thereof” (Panomics, Inc., priority 2002, dated 2009).

Tests used:
PKC = experiment: photoactivated in vitro PKC assay initiated by uncaging caged ATP; type: biochemical; conditions: exposed to 365 nm UV lamp for 10 min; excitation 485 nm, emission 535 nm
Experimental: FIG. 34 is a line graph depicting the results of a photoactivated PKC assay using caged ATP and a PKC sensor. […] Reactions were read on a fluorescent microtiter plate reader with excitation at 485 nm and emission at 535 nm.
FIG. 33 (see, also, FIG. 23) illustrates the activation of an in vitro PKC assay after exposure to 365 nm light. All components were mixed together in a 96-well microtiter plate. The plate was exposed to a 365 nm UV lamp for 10 min (step 3301) and immediately placed into a fluorescent microtiter plate reader for detection. The light-activated compound is DMNPE-caged ATP. […] See, e.g., McCray and Trentham (1989) “Properties and Uses of Photoreactive Caged Compounds” Annu Rev Biophys Biophys Chem 18:239 for a description of the caged ATP. The PKC probes and reaction set-up are based on Yeh et al. (2002) “Real time visualization of protein kinase activity in living cells” J Biol Chem 277: 11527-11532, with the replacement of normal ATP by DMNPE-caged ATP.

protein kinase C (PKC) = experiment: in vivo IC-50 determination with photolabile caged PKC sensor in living HeLa cells; type: cell-based; conditions: HeLa cells transfected with 10 μM caged PKC sensor; 30 min inhibitor incubation; uncaging 1 J/cm^2 365 nm; 1 μM PMA; read-out: IC-50 determined in vivo
Experimental: The caged PKC sensor was transfected into the cells at a concentration of 10 μM, as follows. To 37.5 μl serum-free DMEM, 2.5 μl Profect P-2 and then 10 μl of caged PKC sensor (diluted to 500 μM in PBS) were added. The reagents were mixed gently and incubated for 30 minutes at room temperature. The DMEM was removed from the well containing the HeLa cells, and the cells were washed once with PBS. After addition of 450 μl serum-free DMEM to the Profect P-2-caged sensor complex, 50 μl of the complex was added to each well. The HeLa cells were incubated with the complex at 37° C. for 2 h (or optionally longer, with the addition of fresh DMEM). To uncage the caged PKC sensor, cells were exposed from beneath the plate to 1 J/cm^2 365 nm UV light. Uncaging light was produced by a BlueWave ™ UV Spot Light System fitted with a Lightguide mount assembly, Cool Blue™ filter, and Lightguide rod lens assembly (Dymax Corp., on the internet at dymax.com, part numbers 38600, 38670, and 38699). […] Fluorescent signal from the PKC sensor was read on an Acumen Explorer™ microplate reader.
Cells containing the caged sensor were incubated with 4-fold dilutions of GF109203X for 30 min before the cells were exposed to uncaging light (1 J/cm^2, 365 nm) and treated with 1 μM PMA. Fluorescent signal from the PKC sensor was read on an Acumen Explorer™ microplate reader. […]

PKC enzyme = experiment: in vitro biochemical PKC assay with PKC sensor (not caged); conditions: 1 mM ATP, 1 μM PKC sensor (not caged), 22 nM PKC enzyme; read-out: IC-50 determined in an in vitro biochemical assay

Structure (SMILES) | signal response (relative fluorescence) of PKC reaction (PKC) | IC50 (protein kinase C (PKC)) | IC50 (PKC enzyme)
COc1cc(C(C)OP(=O)(O)OP(=O)(O)OP(=O)(O)OCC2OC(n3cnc4c(N)ncnc43)C(O)C2O)c([N+](=O)[O-])cc1OC (stereo not drawn) [DMNPE-caged ATP] | exhibits signal response similar to the reaction with normal ATP | – | –
CN(C)CCCn1cc(C2=C(c3c[nH]c4ccccc34)C(=O)NC2=O)c2ccccc21 [GF109203X] | – | 1.6 µM | 1.1 µM
